Experiment [1] concerns guinea pig tracheal smooth muscle. The experiment in a line: Tracheal relaxant activity of VIP analogs on isolated guinea pig tracheal rings. The settings on record: cumulative concentration response; responses as % of maximum response to VIP (10^-6 M=100%); at least three tissues pooled; linear regression. The format is cell-based. On the procedure:
The relaxant activity of the VIP analogs was studied in a model utilizing guinea pig trachea. [Wasserman, M. A. et al., in Vasoactive Intestinal Peptide, S. I. Said, ed., Raven Press, N.Y. 1982, pp 177-184]; All tissues were taken from male albino guinea pig weighing 400-600 g, anesthesized with urethane (2 g/kg, i.p.). After exanguination, the trachea were removed and divided into four ring segments (3 mm length). Each ring was suspended by 30 gauge stainless steel wires in a 10 mL jacketed tissue bath and attached via 4-0 silk thread to a Grass force displacement transducer (model FT03C, Grass Instruments Co., Quincy, Ma), for isometric recording of tension. The smooth muscle was bathed in modified Krebs solution of the following composition: NaCl, 120 mM; KCl, 4.7 mM; CaCl2, 2.5 mM; MgSO.4 7H2 O, 1.2 mM; NaHCO3, 25 mM; K2 HPO4 monobasic, 1.2 mM; and dextrose, 10 mM. Tissue baths were maintained at 37° C. and constantly bubbled with 95% O2 and 5% CO2. Responses were recorded on an 8 channel and a 4 channel Hewlett-Packard (model 7702B and 7754A, respectively) recorder (Hewlett-Packard, Paramus, N.J.). […] Frequent readjustments of tension were required during the 60 minute stabilization period which followed. Tissues were rinsed at 15 minute intervals.
Cumulative concentration response curves were obtained for each tissue by successive […] increases in the bath concentration of VIP or VIP analogs according to the method of VanRossum [Arch. Int. Pharmacodyn., 143, 299-330 (1963)]. Only one cumulative dose response curve was obtained on a single tissue. To minimize variability between tissues, relaxant responses were expressed as a percentage of the maximum response obtained to VIP (10^-6 M=100%) added at the end of each concentration response experiment. Responses obtained from at least three tissues were pooled and EC50 values were determined by linear regression.

The test system of another experiment is guinea pigs. Description: In vivo bronchodilator activity by tracheal instillation against histamine-induced bronchoconstriction. The arrangement: species or system guinea pig. The settings on record: 100 μl, anesthetized male Hartley guinea pigs, histamine challenge 50 μg/kg i.v., inhibition of tracheal pressure increase. On the procedure:
The in vivo bronchodilator activity of VIP analogs in guinea pigs was assessed by the tracheal instillation route of administration. This technique utilized male guinea pigs (Hartley strain, Charles River) weighing 400-600 g. Animals were anesthetized with urethane (2 g/kg) intraperitoneally and a polyethylene cannula was inserted into the jugular vein for intravenous drug administration.
The animals were tracheotomized and dosing solutions of distilled water or test compound dissolved in distilled water were administered into the trachea, approximately three-quarter the distance to the carina with a pipette. The concentration of the dosing solution was adjusted to deliver a constant volume of 100 μl. The animals were placed supine for one minute to aid drug delivery to the lung. One minute later, spontaneous breathing was arrested with succinylcholine chloride (1.2 mg/kg) administered intravenously, and the animals were ventilized with a Harvard Model 680 small animal respirator set at 40 breaths/min and 4.0 cm^3 stoke volume. The animals were challenged with a maximal constrictory dose of histamine (50 μg/kg, i.v.) and tracheal pressure (cm of water) was recorded from a Statham pressure transducer (P 32 AA).
The change in tracheal pressure was averaged for at least 3 control and 3 drug-treated animals and percent inhibition was calculated. The relative potency of compounds administered by the instillation route was determined by administering various doses of test compound and calculating the median inhibitory dose (ID50 value). The ID50 was determined from log dose-reasons curves generated by at least 3 doses that caused inhibitory effects between 10% and 90%. The correlation coefficient for the regression line of each antagonist was always greater than 0.95.
For determination of the time course of inhibition for various compounds, the time between administration of compound and challenge with histamine was varied. The time course of activity was calculated as the time when inhibition decreased to 40%.

*1 amine or outer side, *2 acyl side, *3 side chain or, on linkers, in order; H or OH if unused. [ ]: non-standard residue; d: D form. Cys(Acm) = CC(=O)NCSC[C@H](N[*:1])C(=O)[*:2]; Phe(4-F) = N[C@@H](Cc1ccc(F)cc1)C(=O)O; Nle = CCCC[C@H](N)C(=O)O; Orn = NCCC[C@H](N)C(=O)O

Take “Ac--[Glu^8, Lys^12, Nle^17, Val^26, Thr^28, Gly^29,30, Cys(Acm)^31 ]--VIP (Ac-HSDAVFTENYTKLRKQ[Nle]AVKKYLNSVLTGG[Cys(Acm)]-NH2; SMILES CCCC[C@H](NC(=O)[C@H](CCC(N)=O)NC(=O)[C@H](CCCCN)NC(=O)[C@H](CCCNC(=N)N)NC(=O)[C@H](CC(C)C)NC(=O)[C@H](CCCCN)NC(=O)[C@@H](NC(=O)[C@H](Cc1ccc(O)cc1)NC(=O)[C@H](CC(N)=O)NC(=O)[C@H](CCC(=O)O)NC(=O)[C@@H](NC(=O)[C@H](Cc1ccccc1)NC(=O)[C@@H](NC(=O)[C@H](C)NC(=O)[C@H](CC(=O)O)NC(=O)[C@H](CO)NC(=O)[C@H](Cc1c[nH]cn1)NC(C)=O)C(C)C)[C@@H](C)O)[C@@H](C)O)C(=O)N[C@@H](C)C(=O)N[C@H](C(=O)N[C@@H](CCCCN)C(=O)N[C@@H](CCCCN)C(=O)N[C@@H](Cc1ccc(O)cc1)C(=O)N[C@@H](CC(C)C)C(=O)N[C@@H](CC(N)=O)C(=O)N[C@@H](CO)C(=O)N[C@H](C(=O)N[C@@H](CC(C)C)C(=O)N[C@H](C(=O)NCC(=O)NCC(=O)N[C@@H](CSCNC(C)=O)C(N)=O)[C@@H](C)O)C(C)C)C(C)C) [Ac--(SEQ ID NO: 85)--NH2]”: the response in experiment [1] was half-maximal at 0.45 nM (EC50). Moreover, in the experiment on guinea pigs, the “Bronchodilator activity in guinea pigs, ED50” value (“Bronchodilator activity” for short) came out at 2.0 µg.

In the case of “Ac--[Leu^5, p-F--Phe^6, Glu^8, Orn^12, Ala^17,19, Thr^25, Val^26, Thr^28, Gly^29,30, Cys(Acm)^31 ]--VIP (Ac-HSDAL[Phe(4-F)]TENYT[Orn]LRKQAAAKKYLNTVLTGG[Cys(Acm)]-NH2; SMILES CC(=O)NCSC[C@H](NC(=O)CNC(=O)CNC(=O)[C@@H](NC(=O)[C@H](CC(C)C)NC(=O)[C@@H](NC(=O)[C@@H](NC(=O)[C@H](CC(N)=O)NC(=O)[C@H](CC(C)C)NC(=O)[C@H](Cc1ccc(O)cc1)NC(=O)[C@H](CCCCN)NC(=O)[C@H](CCCCN)NC(=O)[C@H](C)NC(=O)[C@H](C)NC(=O)[C@H](C)NC(=O)[C@H](CCC(N)=O)NC(=O)[C@H](CCCCN)NC(=O)[C@H](CCCNC(=N)N)NC(=O)[C@H](CC(C)C)NC(=O)[C@H](CCCN)NC(=O)[C@@H](NC(=O)[C@H](Cc1ccc(O)cc1)NC(=O)[C@H](CC(N)=O)NC(=O)[C@H](CCC(=O)O)NC(=O)[C@@H](NC(=O)[C@H](Cc1ccc(F)cc1)NC(=O)[C@H](CC(C)C)NC(=O)[C@H](C)NC(=O)[C@H](CC(=O)O)NC(=O)[C@H](CO)NC(=O)[C@H](Cc1c[nH]cn1)NC(C)=O)[C@@H](C)O)[C@@H](C)O)[C@@H](C)O)C(C)C)[C@@H](C)O)C(N)=O) [Ac--(SEQ ID NO: 13)--NH2]”, the EC50 in experiment [1] worked out at 0.68 nM. For the same substance, the “Bronchodilator activity” value in the experiment on guinea pigs was determined as 0.09 µg.

For “Ac--[Lys^12, Nle^17, Ala^19, Ala^25, Leu^26, Lys^27,28 ]--VIP (Ac-HSDAVFTDNYTKLRKQ[Nle]AAKKYLNALKK-NH2; SMILES CCCC[C@H](NC(=O)[C@H](CCC(N)=O)NC(=O)[C@H](CCCCN)NC(=O)[C@H](CCCNC(=N)N)NC(=O)[C@H](CC(C)C)NC(=O)[C@H](CCCCN)NC(=O)[C@@H](NC(=O)[C@H](Cc1ccc(O)cc1)NC(=O)[C@H](CC(N)=O)NC(=O)[C@H](CC(=O)O)NC(=O)[C@@H](NC(=O)[C@H](Cc1ccccc1)NC(=O)[C@@H](NC(=O)[C@H](C)NC(=O)[C@H](CC(=O)O)NC(=O)[C@H](CO)NC(=O)[C@H](Cc1c[nH]cn1)NC(C)=O)C(C)C)[C@@H](C)O)[C@@H](C)O)C(=O)N[C@@H](C)C(=O)N[C@@H](C)C(=O)N[C@@H](CCCCN)C(=O)N[C@@H](CCCCN)C(=O)N[C@@H](Cc1ccc(O)cc1)C(=O)N[C@@H](CC(C)C)C(=O)N[C@@H](CC(N)=O)C(=O)N[C@@H](C)C(=O)N[C@@H](CC(C)C)C(=O)N[C@@H](CCCCN)C(=O)N[C@@H](CCCCN)C(N)=O) [Ac--(SEQ ID NO: 12)--NH2]”, the response in experiment [1] was half-maximal at 1.5 nM (EC50). Besides, the “Bronchodilator activity” value in the experiment on guinea pigs is 0.014 µg.

Consider “Ac--[Lys^12, Nle^17, Ala^19, Ala^25, Leu^26, Lys^27,28, Ala^29-31 ]--VIP (Ac-HSDAVFTDNYTKLRKQ[Nle]AAKKYLNALKKAAA-NH2; SMILES CCCC[C@H](NC(=O)[C@H](CCC(N)=O)NC(=O)[C@H](CCCCN)NC(=O)[C@H](CCCNC(=N)N)NC(=O)[C@H](CC(C)C)NC(=O)[C@H](CCCCN)NC(=O)[C@@H](NC(=O)[C@H](Cc1ccc(O)cc1)NC(=O)[C@H](CC(N)=O)NC(=O)[C@H](CC(=O)O)NC(=O)[C@@H](NC(=O)[C@H](Cc1ccccc1)NC(=O)[C@@H](NC(=O)[C@H](C)NC(=O)[C@H](CC(=O)O)NC(=O)[C@H](CO)NC(=O)[C@H](Cc1c[nH]cn1)NC(C)=O)C(C)C)[C@@H](C)O)[C@@H](C)O)C(=O)N[C@@H](C)C(=O)N[C@@H](C)C(=O)N[C@@H](CCCCN)C(=O)N[C@@H](CCCCN)C(=O)N[C@@H](Cc1ccc(O)cc1)C(=O)N[C@@H](CC(C)C)C(=O)N[C@@H](CC(N)=O)C(=O)N[C@@H](C)C(=O)N[C@@H](CC(C)C)C(=O)N[C@@H](CCCCN)C(=O)N[C@@H](CCCCN)C(=O)N[C@@H](C)C(=O)N[C@@H](C)C(=O)N[C@@H](C)C(N)=O) [Ac--(SEQ ID NO: 22)--NH2]”, for which the EC50 in experiment [1] is 0.24 nM. Moreover, in the experiment on guinea pigs, the “Bronchodilator activity” value came out at 0.046 µg.

In the case of “Ac--[Lys^12, Nle^17, Ala^19, Val^26, Thr^28, Ala^29-31 ]--VIP (Ac-HSDAVFTDNYTKLRKQ[Nle]AAKKYLNSVLTAAA-NH2; SMILES CCCC[C@H](NC(=O)[C@H](CCC(N)=O)NC(=O)[C@H](CCCCN)NC(=O)[C@H](CCCNC(=N)N)NC(=O)[C@H](CC(C)C)NC(=O)[C@H](CCCCN)NC(=O)[C@@H](NC(=O)[C@H](Cc1ccc(O)cc1)NC(=O)[C@H](CC(N)=O)NC(=O)[C@H](CC(=O)O)NC(=O)[C@@H](NC(=O)[C@H](Cc1ccccc1)NC(=O)[C@@H](NC(=O)[C@H](C)NC(=O)[C@H](CC(=O)O)NC(=O)[C@H](CO)NC(=O)[C@H](Cc1c[nH]cn1)NC(C)=O)C(C)C)[C@@H](C)O)[C@@H](C)O)C(=O)N[C@@H](C)C(=O)N[C@@H](C)C(=O)N[C@@H](CCCCN)C(=O)N[C@@H](CCCCN)C(=O)N[C@@H](Cc1ccc(O)cc1)C(=O)N[C@@H](CC(C)C)C(=O)N[C@@H](CC(N)=O)C(=O)N[C@@H](CO)C(=O)N[C@H](C(=O)N[C@@H](CC(C)C)C(=O)N[C@H](C(=O)N[C@@H](C)C(=O)N[C@@H](C)C(=O)N[C@@H](C)C(N)=O)[C@@H](C)O)C(C)C) [Ac--(SEQ ID NO: 10)--NH2]”, the EC50 in experiment [1] is 0.3 nM. For the same substance, the “Bronchodilator activity” value in the experiment on guinea pigs was determined as 0.82 µg.

In experiment [1], “Ac--[Lys^12, Nle^17, Ala^19, Val^26, Thr^28, Gly^29, Lys^30 ]--VIP (Ac-HSDAVFTDNYTKLRKQ[Nle]AAKKYLNSVLTGK-NH2; SMILES CCCC[C@H](NC(=O)[C@H](CCC(N)=O)NC(=O)[C@H](CCCCN)NC(=O)[C@H](CCCNC(=N)N)NC(=O)[C@H](CC(C)C)NC(=O)[C@H](CCCCN)NC(=O)[C@@H](NC(=O)[C@H](Cc1ccc(O)cc1)NC(=O)[C@H](CC(N)=O)NC(=O)[C@H](CC(=O)O)NC(=O)[C@@H](NC(=O)[C@H](Cc1ccccc1)NC(=O)[C@@H](NC(=O)[C@H](C)NC(=O)[C@H](CC(=O)O)NC(=O)[C@H](CO)NC(=O)[C@H](Cc1c[nH]cn1)NC(C)=O)C(C)C)[C@@H](C)O)[C@@H](C)O)C(=O)N[C@@H](C)C(=O)N[C@@H](C)C(=O)N[C@@H](CCCCN)C(=O)N[C@@H](CCCCN)C(=O)N[C@@H](Cc1ccc(O)cc1)C(=O)N[C@@H](CC(C)C)C(=O)N[C@@H](CC(N)=O)C(=O)N[C@@H](CO)C(=O)N[C@H](C(=O)N[C@@H](CC(C)C)C(=O)N[C@H](C(=O)NCC(=O)N[C@@H](CCCCN)C(N)=O)[C@@H](C)O)C(C)C) [Ac--(SEQ ID NO: 11)--NH2]” gave an EC50 of 0.58 nM. Moreover, in the experiment on guinea pigs, the “Bronchodilator activity” value came out at 0.58 µg.

(Values after patent publication US5234907A, “Synthetic vasoactive intestinal peptide analogs” (Hoffmann-La Roche Inc., priority 1991, dated 1993).)
